Source: the supplement of paper PMC10331698
± gives the standard deviation of the averaged measurements.

Experiments:
Assay in all cases: level (log10 ratio to DMSO vehicle control); higher = higher biomarker level / cell amount than vehicle control
Settings in all cases: in DMSO
[1] = compound: O=S(=O)(F)C(F)(F)C(F)(F)C(F)(F)C(F)(F)C(F)(F)C(F)(F)C(F)(F)C(F)(F)F [Perfluorooctanesulfonyl fluoride]
Method: (§1)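 BioMAP Diversity Plus panel of 12 human primary cell co-culture systems (3C, 4H, LPS, SAg, BT, BF4T, BE3C, CASM3C, HDF3CGF, KF3CT, MyoF, Mphg). Compounds were added 1 h before stimulation and left for 24 h (MyoF 48 h; BT 72 h for soluble read-outs or 6 d for IgG). Biomarkers were read by ELISA, cytotoxicity by SRB, PBMC viability and proliferation by Alamar Blue. Each well value was divided by the mean of 8 DMSO control wells on the same plate and log10 transformed; duplicate blinded samples were tested at 4 concentrations.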

[2] = compound: O=S(=O)(Cl)C(F)(F)C(F)(F)C(F)(F)C(F)(F)C(F)(F)C(F)(F)C(F)(F)C(F)(F)F [Perfluoro-1-octanesulfonyl chloride]
Method: as §1

Nonafluoropentanamide = compound: NC(=O)C(F)(F)C(F)(F)C(F)(F)C(F)(F)F [Nonafluoropentanamide]
Method: as §1

Hexafluoroamylene glycol = compound: OCC(F)(F)C(F)(F)C(F)(F)CO [Hexafluoroamylene glycol]
Method: as §1

[3] = compound: NS(=O)(=O)C(F)(F)C(F)(F)C(F)(F)C(F)(F)C(F)(F)C(F)(F)F [Perfluorohexanesulfonamide]
Method: as §1

[4] = compound: FC(F)(F)C(F)(F)C(F)(F)CC1CO1 [1H,1H-Heptafluorobutyl epoxide]
Method: as §1

Row | Test System | level (log10) ([1]; 6700 nM) | level (log10) ([1]; 20000 nM) | level (log10) ([1]; 60000 nM) | level (log10) ([2]; 6700 nM) | level (log10) ([2]; 20000 nM) | level (log10) ([2]; 60000 nM) | level (log10) (Nonafluoropentanamide; 6700 nM) | level (log10) (Nonafluoropentanamide; 20000 nM) | level (log10) (Nonafluoropentanamide; 60000 nM) | level (log10) (Hexafluoroamylene glycol; 6700 nM) | level (log10) (Hexafluoroamylene glycol; 20000 nM) | level (log10) (Hexafluoroamylene glycol; 60000 nM) | level (log10) ([3]; 6700 nM) | level (log10) ([3]; 20000 nM) | level (log10) ([3]; 60000 nM) | level (log10) ([4]; 6700 nM) | level (log10) ([4]; 20000 nM) | level (log10) ([4]; 60000 nM)
1 | KF3CT:IL-1alpha | -0.0055 ± 0.026 | 0.007 ± 0.013 | -0.0145 ± 0.026 | -0.013 ± 0.0085 | -0.03 ± 0.02 | -0.055 ± 0.0014 | 0.012 ± 0.0085 | 0.011 | 0.0095 ± 0.0064 | -0.014 ± 0.031 | -0.018 ± 0.0099 | -0.017 ± 0.038 | 0.026 ± 0.025 | 0.03 ± 0.028 | 0.052 ± 0.02 | -0.009 ± 0.011 | -0.0255 ± 0.015 | 0.0095 ± 0.037
2 | KF3CT:MMP-9 | -0.012 ± 0.035 | -0.0185 ± 0.032 | -0.0075 ± 0.035 | -0.0225 ± 0.028 | -0.0155 ± 0.013 | -0.193 ± 0.026 | -0.039 ± 0.027 | -0.0195 ± 0.0021 | -0.0245 ± 0.011 | -0.0145 ± 0.005 | -0.011 ± 0.025 | -0.0155 ± 0.0035 | -0.015 ± 0.02 | -0.039 ± 0.03 | -0.093 ± 0.021 | -0.0085 ± 0.028 | -0.012 ± 0.0099 | -0.0205 ± 0.013
3 | KF3CT:PAI-I | -0.0005 ± 0.018 | -0.008 ± 0.0057 | 0.0025 ± 0.012 | -0.036 ± 0.014 | -0.116 ± 0.0057 | -0.2505 ± 0.0021 | -0.042 ± 0.0099 | -0.0205 ± 0.036 | -0.0375 ± 0.00071 | 0.002 ± 0.016 | -0.0055 ± 0.005 | 0.013 | 0.0045 ± 0.016 | 0.0035 ± 0.021 | -0.0285 ± 0.022 | -0.0145 ± 0.00071 | -0.0115 ± 0.018 | -0.014 ± 0.0085
4 | KF3CT:SRB | 0.0025 ± 0.0021 | 0.0015 ± 0.005 | 0.0045 ± 0.00071 | -0.0095 ± 0.011 | -0.0315 ± 0.0078 | -0.026 ± 0.0028 | -0.001 | -0.004 ± 0.0071 | 0.0085 ± 0.015 | -0.0045 ± 0.00071 | -0.005 ± 0.0057 | 0.0025 ± 0.0078 | 0 ± 0.0099 | -0.008 ± 0.0028 | -0.014 ± 0.0042 | -0.001 ± 0.0085 | 0.001 ± 0.0028 | -0.001 ± 0.0057
5 | KF3CT:TIMP-2 | -0.016 ± 0.016 | -0.0245 ± 0.022 | -0.019 ± 0.038 | -0.031 ± 0.0071 | -0.0235 ± 0.018 | -0.017 ± 0.051 | -0.0245 ± 0.0092 | -0.007 ± 0.011 | 0.011 ± 0.037 | -0.0095 ± 0.026 | -0.019 ± 0.0085 | -0.007 ± 0.014 | -0.01 ± 0.02 | -0.0115 ± 0.0064 | 0.008 ± 0.0057 | 0.039 ± 0.0042 | -0.006 ± 0.016 | 0.0365 ± 0.06
6 | KF3CT:uPA | 0.006 ± 0.011 | 0.008 ± 0.016 | 0.011 ± 0.028 | 0.016 ± 0.017 | 0.0145 ± 0.025 | 0.0055 ± 0.00071 | 0.0205 ± 0.011 | 0.019 ± 0.0042 | 0.011 ± 0.013 | 0.004 ± 0.0057 | 0.006 ± 0.011 | -0.0065 ± 0.025 | -0.006 ± 0.023 | -0.0215 ± 0.019 | 0.0025 ± 0.022 | -0.0085 ± 0.047 | 0.017 ± 0.067 | -0.019 ± 0.033
7 | LPS:CCL2/MCP-1 | 0.0005 ± 0.015 | -0.012 ± 0.016 | 0.0145 ± 0.028 | -0.0075 ± 0.0078 | 0.025 ± 0.021 | 0.0205 ± 0.029 | 0.005 ± 0.011 | 0.022 ± 0.035 | 0.0325 ± 0.039 | 0.0055 ± 0.012 | -0.009 ± 0.03 | 0.0135 ± 0.04 | -0.011 ± 0.0028 | -0.024 ± 0.018 | -0.102 ± 0.034 | -0.0025 ± 0.005 | -0.017 ± 0.023 | -0.0095 ± 0.0021
8 | LPS:CD40 | 0.031 ± 0.12 | 0.0455 ± 0.094 | 0.033 ± 0.1 | -0.0175 ± 0.081 | -0.0145 ± 0.042 | -0.027 ± 0.0042 | 0.002 ± 0.038 | -0.008 ± 0.068 | 0.0015 ± 0.035 | 0.035 ± 0.024 | 0.0385 ± 0.04 | 0.028 ± 0.04 | 0.005 ± 0.068 | -0.045 ± 0.09 | -0.191 ± 0.04 | 0.0165 ± 0.054 | 0.0105 ± 0.053 | 0.026 ± 0.024
9 | LPS:CD62E/E-Selectin | 0.008 ± 0.0028 | 0.0015 ± 0.0064 | -0.002 ± 0.011 | -0.0105 ± 0.0078 | -0.0095 ± 0.00071 | 0.0585 ± 0.016 | 0.003 ± 0.0042 | 0.0175 ± 0.005 | 0.0215 ± 0.029 | 0.023 ± 0.024 | -0.007 ± 0.023 | -0.0125 ± 0.0064 | -0.002 ± 0.0099 | -0.0295 ± 0.012 | -0.0815 ± 0.011 | 0.0105 ± 0.012 | -0.009 ± 0.016 | 0.0035 ± 0.036
10 | LPS:CD69 | -0.019 ± 0.031 | -0.0135 ± 0.0092 | -0.0335 ± 0.011 | -0.0255 ± 0.069 | -0.032 ± 0.0071 | -0.047 ± 0.052 | -0.0545 ± 0.046 | -0.042 ± 0.05 | -0.001 ± 0.025 | -0.028 ± 0.085 | -0.038 ± 0.03 | -0.041 ± 0.067 | -0.009 ± 0.013 | -0.061 ± 0.016 | -0.169 ± 0.005 | -0.012 ± 0.031 | -0.0365 ± 0.029 | 0.0095 ± 0.018
11 | LPS:CD142/Tissue Factor | -0.0015 ± 0.0064 | 0.018 ± 0.011 | -0.0065 ± 0.019 | -0.023 ± 0.055 | 0.0075 ± 0.0078 | 0.11 ± 0.0092 | 0.0085 ± 0.019 | 0.0165 ± 0.0078 | -0.013 ± 0.017 | 0.0025 ± 0.087 | 0.041 ± 0.081 | 0.021 ± 0.082 | 0.0095 ± 0.025 | 0.012 ± 0.0085 | 0.022 ± 0.0071 | 0.011 ± 0.014 | 0.0085 ± 0.018 | 0.015 ± 0.0085
12 | LPS:CXCL8/IL-8 | 0.012 ± 0.027 | 0.011 ± 0.0099 | -0.0015 ± 0.005 | -0.005 ± 0.013 | 0.0425 ± 0.0092 | 0.159 ± 0.0057 | -0.034 ± 0.028 | -0.002 ± 0.034 | 0.032 ± 0.052 | 0.025 ± 0.076 | 0.026 ± 0.0057 | 0.0885 ± 0.037 | -0.005 ± 0.0071 | -0.0015 ± 0.013 | -0.034 ± 0.0071 | -0.019 ± 0.031 | -0.0135 ± 0.028 | 0.003 ± 0.031
13 | LPS:IL-1alpha | 0.0065 ± 0.015 | 0.024 ± 0.016 | 0.0105 ± 0.012 | 0.0255 ± 0.018 | -0.0115 ± 0.039 | -0.063 ± 0.12 | -0.1 ± 0.011 | -0.102 ± 0.0099 | -0.0555 ± 0.0092 | 0.047 ± 0.035 | -0.0045 ± 0.0035 | 0.03 ± 0.048 | -0.0075 ± 0.053 | 0.032 ± 0.013 | 0.0185 ± 0.0078 | -0.027 ± 0.023 | -0.0115 ± 0.023 | 0.0085 ± 0.022
14 | MyoF:CXCL8/IL-8 | 0.0095 ± 0.0021 | 0.023 ± 0.0042 | 0.0325 ± 0.032 | -0.005 ± 0.016 | 0.0115 ± 0.005 | 0.138 ± 0.0042 | -0.0255 ± 0.00071 | -0.01 ± 0.024 | 0.0125 ± 0.015 | -0.0385 ± 0.028 | -0.0325 ± 0.018 | 0.001 ± 0.075 | 0.046 ± 0.068 | 0.024 ± 0.067 | 0.0085 ± 0.015 | -0.012 ± 0.0028 | 0.006 ± 0.0099 | -0.021 ± 0.0042
15 | MyoF:Collagen I | 0.0005 ± 0.0035 | -0.005 ± 0.0099 | 0.003 ± 0.016 | -0.009 | -0.0185 ± 0.00071 | -0.0665 ± 0.00071 | -0.015 ± 0.025 | -0.0085 ± 0.047 | 0.001 ± 0.0071 | 0.012 ± 0.0028 | -0.0045 ± 0.016 | 0.019 ± 0.017 | 0.024 ± 0.013 | 0.0515 ± 0.013 | 0.0495 ± 0.022 | 0.013 ± 0.018 | -0.0025 ± 0.00071 | -0.0105 ± 0.012
16 | MyoF:Collagen III | 0.0095 ± 0.018 | -0.0005 ± 0.03 | 0.009 ± 0.0099 | -0.0155 ± 0.0035 | -0.0315 ± 0.00071 | -0.164 ± 0.035 | -0.029 ± 0.021 | -0.0335 ± 0.036 | -0.0145 ± 0.0092 | -0.007 ± 0.017 | -0.005 ± 0.018 | 0.005 ± 0.017 | 0.009 ± 0.0071 | 0.008 ± 0.0014 | 0.0025 ± 0.0035 | -0.007 ± 0.011 | -0.012 ± 0.011 | -0.012 ± 0.0042
17 | MyoF:Collagen IV | 0.0015 ± 0.015 | 0.023 ± 0.025 | 0.0235 ± 0.018 | 0.014 ± 0.011 | 0.052 ± 0.023 | 0.241 ± 0.037 | -0.051 ± 0.12 | -0.0655 ± 0.054 | -0.0655 ± 0.064 | -0.0165 ± 0.042 | -0.0015 ± 0.026 | -0.0035 ± 0.00071 | 0.0555 ± 0.023 | 0.202 ± 0.025 | 0.408 ± 0.016 | -0.0125 ± 0.015 | 0 ± 0.0099 | 0.001 ± 0.035
